In patent US10738062B2, “Chromane-substituted tetracyclic compounds and uses thereof for the treatment of viral diseases” (Merck Sharp & Dohme Corp., priority 2016, dated 2020) one finds EC50 data, which are given here for five molecules.

Like-named read-outs stand apart in the source and are kept apart here.

What all share (parameters): species or system Hepatitis C virus
Assay [1] deals with HCV replicon 1A. Put plainly: Cell-based HCV replicon assay (Replicon Assay A), replicon 1A. Conditions: replicon RNA by real time PCR, day 3. The gist of the method:
(§1)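 Replicon cells were seeded at 2000/well with compound, 10 serial dilutions starting at 333.3 nM to 1.667 nM, in 0.5% DMSO and 5% FBS, then harvested on day 3. Replicon RNA was measured by multiplex TaqMan RT-PCR with cyclophilin as endogenous control. EC50 is the concentration raising Ct by 1 over projected baseline.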
In general terms: A replicon is a self-replicating genome or part of one, used to study replication in cells.

Assay [2] has as its system HCV replicon 1B. Put plainly: Cell-based HCV replicon assay (Replicon Assay B), replicon 1B. Conditions: replicon RNA by real-time PCR, 3 days.
Assay [3] has as its system HCV replicon 2B. The experiment in a line: Cell-based HCV replicon assay (Replicon Assay A), replicon 2B. Conditions: replicon RNA by real time PCR, day 3. The gist of the method: as §1
In assay [4] the test system is HCV replicon 1A Y93H. Put plainly: Cell-based HCV replicon assay (Replicon Assay A), replicon 1AY93H. Conditions: replicon RNA by real time PCR, day 3. The gist of the method: as §1
Where [5] appears, read: Hepatitis C virus, 72 h, read-out: EC50 replicon 2B, Replicon Assay A.
[6] abbreviates: read-out: EC50 replicon 1A Y93H, Replicon Assay A.
[7] abbreviates: read-out: EC50 replicon 2B, Replicon Assay A.

One may read the EC50 as the concentration at which the effect is half-maximal. As for `COC(=O)N[C@H](C(=O)N1CCC[C@H]1c1ncc(-c2cc(F)c3c(c2)OC(c2ccc4c(c2)CCCO4)n2c-3cc3cc(-c4cnc([C@@H]5CCCN5C(=O)[C@@H](NC(=O)OC)C5CCOCC5)[nH]4)ccc32)[nH]1)C(C)C` (single isomer, unassigned) [Compound 35], the EC50 was 3.4 pM in assay [1] (Hepatitis C virus, 72 h); 1.2 pM in assay [2] (Hepatitis C virus, 72 h); 258 pM in assay [3] (setting [5]); 61 pM in assay [4] (setting [6]).

As to `COC(=O)NC(C(=O)N1CCC[C@H]1c1ncc(-c2ccc3c(c2)cc2n3C(c3ccc4c(c3)OCCC4)Oc3cc(-c4cnc([C@@H]5CCCN5C(=O)[C@@H](NC(=O)OC)C(C)C)[nH]4)cc(F)c3-2)[nH]1)C1CCO[C@H](C)C1` (single isomer, unassigned) [Compound 94], the EC50 turned out to be 2.3 pM in assay [1], 3.3 pM in assay [2], 4 pM in assay [3] (setting [7]) and 6 pM in assay [4] (setting [6]).

For the molecule `COC(=O)NC(C(=O)N1CCC[C@H]1c1ncc(-c2cc(F)c3c(c2)OC(c2ccc4c(c2)OCCC4)n2c-3cc3cc(-c4cnc([C@@H]5CCCN5C(=O)[C@@H](NC(=O)OC)C5CCOCC5)[nH]4)ccc32)[nH]1)C(C)(C)F` (single isomer, unassigned) [Compound 90], the EC50 came out at 1.7 pM in assay [1], 3.2 pM in assay [2], 157 pM in assay [3] (setting [7]) and 47 pM in assay [4] (setting [6]).

Take `COC(=O)NC(C(=O)N1[C@@H]2C[C@@H]2C[C@H]1c1ncc(-c2ccc3c(c2)cc2n3C(c3ccc4c(c3)OCCC4)Oc3cc(-c4cnc([C@@H]5CCCN5C(=O)[C@@H](NC(=O)OC)C(C)C)[nH]4)cc(F)c3-2)[nH]1)C1CCOC(C)(C)C1` (single isomer, unassigned) [Compound 69]: the concentration for a half-maximal effect (EC50) in assay [1] (Hepatitis C virus, 72 h) stood at 3.2 pM; in assay [2] (Hepatitis C virus, 72 h), 3.5 pM; in assay [3] (setting [5]), 8 pM; in assay [4] (Hepatitis C virus, 72 h, read-out: EC50 replicon 1A Y93H, Replicon Assay A) it was 5 pM.

As for `COC(=O)N[C@H](C(=O)N1CCC[C@H]1c1ncc(-c2ccc3c(c2)cc2n3C(c3ccc4c(c3)OCCC4)Oc3cc(-c4cnc([C@@H]5CCCN5C(=O)[C@@H](NC(=O)OC)C5CCOCC5)[nH]4)cc(F)c3-2)[nH]1)C(C)C` (single isomer, unassigned) [Compound 33], the EC50 is 1.8 pM in assay [1] (Hepatitis C virus, 72 h); 2.1 pM in assay [2] (Hepatitis C virus, 72 h); 114 pM in assay [3] (setting [7]); 598 pM in assay [4] (setting [6]).
